# Patent US20230372407A1, “METHODS FOR MODULATING TLR4 SIGNALING” (President and Fellows of Harvard College, priority 2020, published 2023)
# Like-named read-outs stand apart in the source and are kept apart here.
# Legend:
# ISG expression [1] = test: ISG expression in mesenteric lymph nodes (qRT-PCR); type: in vivo, mouse
# ISG expression [2] = test: ISG expression in spleen (qRT-PCR); type: in vivo, mouse
# TLR4 = type: cell-based, mouse
# CD4+ T cells = type: cell-based; settings: data not shown
# VSV strain Indiana = settings: mouse, in vivo, po
# [3] = Mouse autoimmune disease model; type: in vivo; settings: dependent on IFN-I signaling; data not shown
# VSV-GFP = type: cell-based, mouse
# IAV/PR8-GFP = type: cell-based, mouse
# CD4+FOXP3+ Tregs = test: Human colon biopsy cLP lymphocytes, IL-10 production by CD4+FOXP3+ Tregs; type: cell-based; settings: total cLP lymphocytes from human colon biopsies, 6-10 days
# Procedure: FIG. 13. PSA induces Tregs in cells obtained from human gut tissue biopsies. Total cLP lymphocytes from 8-10 human colon biopsies were treated with PBS, WT-OMV, DPSA-OMV, or purified PSA for 6-10 days. IL-10 production by CD4+FOXP3+ Tregs was assessed by flow cytometry and intracellular cytokine staining. ** p<0.01, One-way ANOVA. Error bars represent mean +S.E.M.
# Human specimens = Human specimens response to PSA; type: cell-based
# Ifnb1 expression = Ifnb1 expression by lamina propria DCs (qRT-PCR); type: in vivo, mouse; settings: WT SPF mice, 150 ug oral gavage, 1.5 hrs
# Procedure: To confirm the relevance of these findings in vivo, Ifnb1 expression by colon LP DCs was analyzed in WT SPF mice administered 150 ug of PSA by oral gavage.
# RNA was isolated from whole tissues or the DC^+ and DC^− fractions of spleens, mLNs, and colons following manufacturer's instructions with the RNeasy mini kit (Qiagen). cDNA was prepared with the Quantitect Reverse Transcription Kit (Qiagen). qRT-PCR was performed on a QuantStudio7 Flex or Pro Real-Time PCR system (Applied Biosystems) with RT^2 SYBR Green ROX qPCR Mastermix (Qiagen). Amplification was achieved using an initial cycle of 95° C. for 10 min, followed by 40 cycles of 95° C. for 15 s and 60° C. for 1 min. Gene expression was normalized using Actb as a reference gene. The forward (f) and reverse (r) primers used to detect expression of the corresponding murine genes were as follows (SEQ ID NOs: 1-20, respectively):
# Single-cell suspensions of the indicated tissues were prepared as described. DC positive and negative fractions were isolated with mouse pan-DC microbeads (Miltenyi), following the manufacturer's protocol.
# GFWT C57BL/6 mice were administered B. fragilis strain NCTC 9343 or C. ramosum strain AO31 by oral gavage [200 uL, approximately 10^8-10^9 colony-forming units (CFU) per mouse]. […]
# ISG expression [4] = test: ISG / BST2 expression in BMDCs (qRT-PCR, flow cytometry); type: cell-based, mouse
# [5] = WT SPF mice + metronidazole 7 days (Table 3)
# [6] = WT SPF mice + metronidazole 7 days (Table 4)
compound,measurement,setting,value
Cc1ncc([N+](=O)[O-])n1CCO [metronidazole],"Ifit1 mLN fold difference gene expression to WT SPF, Mean",ISG expression [1]; [5],0.57 fold
same,"Ifit2 mLN fold difference gene expression to WT SPF, Mean",ISG expression [1]; [5],0.69 fold
same,"Ifit3 mLN fold difference gene expression to WT SPF, Mean",ISG expression [1]; [5],0.76 fold
same,"Irf7 mLN fold difference gene expression to WT SPF, Mean",ISG expression [1]; [5],0.68 fold
same,"Mx1 mLN fold difference gene expression to WT SPF, Mean",ISG expression [1]; [5],0.78 fold
same,"Oas/2 mLN fold difference gene expression to WT SPF, Mean",ISG expression [1]; [5],0.74 fold
same,"Rsad2 mLN fold difference gene expression to WT SPF, Mean",ISG expression [1]; [5],0.46 fold
same,ISG expression in mLN (panel),ISG expression [1]; WT mice vs WT SPF,significant decreases in ISG expression
same,"Ifit1 Spleen fold difference gene expression to WT SPF, Mean",ISG expression [2]; [6],0.57 fold
same,"Ifit2 Spleen fold difference gene expression to WT SPF, Mean",ISG expression [2]; [6],0.69 fold
same,"Ifit3 Spleen fold difference gene expression to WT SPF, Mean",ISG expression [2]; [6],0.76 fold
same,"Irf7 Spleen fold difference gene expression to WT SPF, Mean",ISG expression [2]; [6],0.68 fold
same,"Mx1 Spleen fold difference gene expression to WT SPF, Mean",ISG expression [2]; [6],0.78 fold
same,"Oas/2 Spleen fold difference gene expression to WT SPF, Mean",ISG expression [2]; [6],0.74 fold
same,"Rsad2 Spleen fold difference gene expression to WT SPF, Mean",ISG expression [2]; [6],0.46 fold
same,ISG expression in spleen (panel),ISG expression [2]; WT mice vs WT SPF,significant decreases in ISG expression
lipooligosaccharide [LOS],IFNβ secretion by BMDCs,TLR4; Tlr4−/− BMDCs vs WT,through TLR4
same,IFNβ secretion by BMDCs,TLR4; WT BMDCs,dose-dependent manner
polysaccharide A [PSA],IFNβ secretion by BMDCs,"TLR4; Myd88−/− BMDCs, 50 ug/mL, 6 hrs",significant decrease
same,IFNβ secretion by BMDCs,"TLR4; Tlr2−/− BMDCs vs WT, 50 ug/mL, 6 hrs",no effect
same,IFNβ secretion by BMDCs,TLR4; Tlr4−/− BMDCs vs WT,completely lost the ability to secrete IFNβ
same,IFNβ secretion by BMDCs,"TLR4; Trif−/− BMDCs, 50 ug/mL, 6 hrs",lack of increased IFNβ secretion
same,IFNβ secretion by BMDCs,TLR4; WT BMDCs,significantly induced
same,IFNβ secretion by BMDCs,"TLR4; dectin-1 deficient (Clec7a−/−) BMDCs vs WT, 50 ug/mL, 6 hrs",no effect
same,IL-10 secretion by CD4+ T cells,CD4+ T cells,enhance IL-10 secretion
same,daily and cumulative paralysis scores,VSV strain Indiana,decreased
same,incidence of disease,VSV strain Indiana,decreased
same,survival,VSV strain Indiana,enhanced survival
same,protective effects in a mouse autoimmune disease model,[3],protective effects
same,Protection from VSV-GFP infection,VSV-GFP,completely lost
same,cell viability,VSV-GFP,increased cell viability
same,percentage of infected (GFP+) cells,VSV-GFP,inhibited virus infection in a dose-dependent manner
same,antiviral effect against IAV/PR8-GFP,IAV/PR8-GFP,completely abrogated
same,cell viability,IAV/PR8-GFP,increase in cell viability
same,percentage of infected cells,IAV/PR8-GFP,significant reduction
same,IL-10 production by CD4+FOXP3+ Tregs,CD4+FOXP3+ Tregs,induces Tregs
same,response of human specimens,Human specimens,dose-dependent manner
same,Ifnb1 expression by colon LP DCs,Ifnb1 expression,significant increase
same,Surface BST2 levels,ISG expression [4]; Ifnar1−/− and Ifnb1−/− BMDCs vs WT,significantly reduced
same,expression of a panel of ISGs,"ISG expression [4]; WT BMDCs, 24 hrs, 50 ug/mL, vs vehicle",increase in expression
same,BST2 mean fluorescence intensity (MFI),"ISG expression [4]; WT BMDCs, 24 hrs, 100 ug/mL, vs vehicle",increased
